The results in this text go back to PubChem BioAssay (NCI).

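Following 48 hours of exposure in 96-well plates, responses at five concentrations were used to interpolate endpoints linearly. TGI is the concentration that stops growth completely.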 Where only a bound is given, the exact number is not on record here.

Test systems include OVCAR-5 ovarian; 786-0 renal; OVCAR-3 ovarian; SK-OV-3 ovarian; ACHN renal; KM12 colon; NCI-H522 lung; HOP-92 NSCLC; HCT-15 colon; M14 melanoma; CCRF-CEM leukemia; SK-MEL-28 melanoma; T-47D breast; OVCAR-8 ovarian; SNB-19 CNS; SF-268 CNS; NCI-H23 lung; SK-MEL-5 melanoma; SF-539 CNS.
Common to all, as to experiment: NCI tumour cell line growth inhibition, 48 h

On to `COc1cc(/C=C2/C[C@H]3[C@@H]4CCC5=CC(=O)CC[C@]5(C)[C@H]4CC[C@]3(C)NC2=O)cc(OC)c1OC`, for which the TGI in the assay on OVCAR-5 ovarian was 57.7 µM; in the assay with 786-0 renal, above 100 µM; in the assay on OVCAR-3 ovarian, above 100 µM; with SK-OV-3 ovarian it was above 100 µM; with ACHN renal it was above 100 µM; in the assay with KM12 colon, above 100 µM. For the same molecule, the TGI in the assay on NCI-H522 lung was 34 µM; in the assay with HOP-92 NSCLC, 39.6 µM; with HCT-15 colon it was above 100 µM; in the assay with M14 melanoma, above 100 µM; in the assay with CCRF-CEM leukemia, 64.4 µM; in the assay on SK-MEL-28 melanoma it was above 100 µM. In addition, the TGI with T-47D breast is 63 µM; with OVCAR-8 ovarian, 70.7 µM; with SNB-19 CNS it was above 100 µM; with SF-268 CNS, above 100 µM; in the assay on NCI-H23 lung, 57.3 µM; in the assay with SK-MEL-5 melanoma it was 52.4 µM.
For `C/C(=N\N=C(\N)OB(F)F)c1ccccn1`, the TGI with OVCAR-5 ovarian, with 786-0 renal, with SF-539 CNS, in the assay with OVCAR-3 ovarian, in the assay with ACHN renal and in the assay with KM12 colon was above 100 µM in each case. The TGI was above 100 µM in the assay on NCI-H522 lung; 85.7 µM with HOP-92 NSCLC; above 100 µM in the assay on HCT-15 colon; above 100 µM in the assay with M14 melanoma; 73.1 µM in the assay with CCRF-CEM leukemia; above 100 µM with SK-MEL-28 melanoma. Moreover, the TGI with T-47D breast, with OVCAR-8 ovarian, in the assay with SNB-19 CNS, with SF-268 CNS, in the assay with NCI-H23 lung and with SK-MEL-5 melanoma was above 100 µM each time.
With `CC(=O)Oc1ccn2nc(C)c(Cc3c(C)nn4ccc(OC(C)=O)cc34)c2c1`, the TGI in the assay with OVCAR-5 ovarian, in the assay on 786-0 renal, in the assay on SF-539 CNS, in the assay with OVCAR-3 ovarian, in the assay with ACHN renal and in the assay with KM12 colon was above 100 µM each time. The TGI was above 100 µM in the assay with NCI-H522 lung; above 100 µM in the assay with HOP-92 NSCLC; above 100 µM in the assay on HCT-15 colon; above 100 µM in the assay with M14 melanoma; 76.6 µM in the assay on CCRF-CEM leukemia; above 100 µM with SK-MEL-28 melanoma. Also, the TGI in the assay on T-47D breast, in the assay with OVCAR-8 ovarian, with SNB-19 CNS, with SF-268 CNS, in the assay with NCI-H23 lung and in the assay with SK-MEL-5 melanoma was above 100 µM throughout.
Consider `Nc1ccc(-c2nc3cc(F)ccc3s2)cc1Br`, for which the TGI was above 100 µM with OVCAR-5 ovarian; above 100 µM in the assay with 786-0 renal; above 71.4 µM with SF-539 CNS; above 100 µM in the assay on OVCAR-3 ovarian; above 100 µM with SK-OV-3 ovarian; above 100 µM with ACHN renal. In addition, the TGI is above 100 µM in the assay with KM12 colon; above 100 µM in the assay on NCI-H522 lung; above 100 µM in the assay on HOP-92 NSCLC; above 65.1 µM with HCT-15 colon; above 100 µM in the assay on M14 melanoma; above 100 µM in the assay on CCRF-CEM leukemia. Moreover, the TGI in the assay with SK-MEL-28 melanoma, with T-47D breast, with OVCAR-8 ovarian, in the assay with SNB-19 CNS, with SF-268 CNS and with SK-MEL-5 melanoma was above 100 µM in each case.
As for `Nc1nc(N)nc(-c2cnc3ccccc3c2)n1`, the TGI in the assay with OVCAR-5 ovarian, in the assay on 786-0 renal, in the assay on SF-539 CNS, in the assay with OVCAR-3 ovarian, in the assay with SK-OV-3 ovarian and in the assay on ACHN renal was above 100 µM throughout. The TGI was above 100 µM in the assay with KM12 colon; above 100 µM in the assay on NCI-H522 lung; above 100 µM in the assay with HOP-92 NSCLC; above 100 µM in the assay with HCT-15 colon; above 100 µM in the assay with M14 melanoma; 65.9 µM in the assay with CCRF-CEM leukemia. Also, the TGI with SK-MEL-28 melanoma, in the assay on T-47D breast, in the assay on OVCAR-8 ovarian, with SNB-19 CNS, with SF-268 CNS and in the assay on NCI-H23 lung was above 100 µM each time.
Take `NNC(=O)CC(=O)Nc1ccc(C(=O)O)cc1`: the TGI in the assay on OVCAR-5 ovarian, in the assay on 786-0 renal, in the assay on SF-539 CNS, with OVCAR-3 ovarian, with SK-OV-3 ovarian and with ACHN renal was above 100 µM each time. The TGI with KM12 colon, with NCI-H522 lung, with HOP-92 NSCLC, in the assay on HCT-15 colon, in the assay on CCRF-CEM leukemia and in the assay on T-47D breast was above 100 µM in each case. The TGI in the assay with OVCAR-8 ovarian, in the assay with SNB-19 CNS, in the assay on SF-268 CNS, in the assay on NCI-H23 lung and with SK-MEL-5 melanoma was above 100 µM each time.
Regarding `CCOC(=O)CCC(NC(=O)N1CCN(c2c(C)nc(C)[nH]c2=O)CC1)C(=O)OCC` (stereo not drawn), the TGI in the assay on OVCAR-5 ovarian, with 786-0 renal, in the assay on SF-539 CNS, in the assay on OVCAR-3 ovarian, with SK-OV-3 ovarian and with ACHN renal was above 100 µM in each case. Moreover, the TGI in the assay on KM12 colon, in the assay on NCI-H522 lung, with HOP-92 NSCLC, in the assay with HCT-15 colon, with M14 melanoma and with CCRF-CEM leukemia was above 100 µM in each case. Also, the TGI with SK-MEL-28 melanoma, with T-47D breast, in the assay with OVCAR-8 ovarian, in the assay with SNB-19 CNS, with SF-268 CNS and in the assay on NCI-H23 lung was above 100 µM throughout.
As for `Cn1ccnc1SC(F)(F)c1nc2ccccc2o1`, the TGI with OVCAR-5 ovarian, in the assay with 786-0 renal, in the assay with SF-539 CNS, in the assay with OVCAR-3 ovarian, in the assay with SK-OV-3 ovarian and with ACHN renal was above 100 µM in each case. The TGI with KM12 colon, in the assay on NCI-H522 lung, in the assay on HOP-92 NSCLC, in the assay with HCT-15 colon, in the assay on M14 melanoma and in the assay on CCRF-CEM leukemia was above 100 µM throughout. In addition, the TGI in the assay on SK-MEL-28 melanoma, with T-47D breast, with OVCAR-8 ovarian, with SF-268 CNS, in the assay on NCI-H23 lung and in the assay on SK-MEL-5 melanoma was above 100 µM each time.
